Calls of active or inactive are those of the source. The calls are words filed in the database; no cut-off is given here.
Columns and labels:
[1] = Toxicity in chronic restraint stress-induced depressive C57BL/6J mouse model assessed as decrease in percentage of spontaneous alternation at 4 mg/kg,ip administration by Y-maze test; assay type: organism-based; details: in vivo
[2] = Tmax in Sprague-Dawley rat at 0.3 mg/kg,iv measured at 0.05 to 24 hrs of post administration by LC-MS/MS analysis; assay type: ADME, organism-based; details: in vivo, time 0.05-24 hrs
Mus musculus [3] = assay: Antidepressant activity in Reserpine-induced depressive ICR mouse model assessed as decrease in immobility time at ip administrated on day 4 to 8 measured on day 10 by forced swimming test; assay type: functional, organism-based; details: time 7.0 day
[4] = Cmax in Sprague-Dawley rat at 0.3 mg/kg,iv measured at 0.05 to 24 hrs of post administration by LC-MS/MS analysis; assay type: ADME, organism-based; details: in vivo, time 0.05-24 hrs
[5] = Half life in Sprague-Dawley rat at 0.3 mg/kg,ip measured at 0.05 to 24 hrs of post administration by LC-MS/MS analysis; assay type: ADME, organism-based; details: in vivo, time 0.05-24 hrs
[6] = AUC (0 to infinity) in Sprague-Dawley rat at 0.3 mg/kg,ip measured at 0.05 to 24 hrs of post administration by LC-MS/MS analysis; assay type: ADME, organism-based; details: in vivo, time 0.05-24 hrs
Mus musculus [7] = assay: Antidepressant activity in chronic restraint stress-induced depressive C57BL/6J mouse model assessed as increase in hippocampal BDNF mRNA expression at 0.3 mg/kg,ip administration measured after 24 hrs by qRT-PCR analysis; assay type: functional, organism-based
[8] = MRT (0 to infinity) in Sprague-Dawley rat at 0.3 mg/kg,ip measured at 0.05 to 24 hrs of post administration by LC-MS/MS analysis; assay type: ADME, organism-based; details: in vivo, time 0.05-24 hrs
HT-22 = assay: Neuroprotective activity against CORT-induced cytotoxicity in mouse HT-22 cells assessed as increase in cell viability at 12.5 to 100 uM incubated for 24 hrs by CCK-8 assay; assay type: functional, cell-based; details: dose 12.5-100 µM
[9] = Bioavailability in Sprague-Dawley rat at 0.3 mg/kg,ip measured at 0.05 to 24 hrs of post administration by LC-MS/MS analysis; assay type: ADME, organism-based; details: in vivo, time 0.05-24 hrs
[10] = MRT (0 to last) in Sprague-Dawley rat at 0.3 mg/kg,ip measured at 0.05 to 24 hrs of post administration by LC-MS/MS analysis; assay type: ADME, organism-based; details: in vivo, time 0.05-24 hrs
[11] = MRT (0 to infinity) in Sprague-Dawley rat at 0.3 mg/kg,iv measured at 0.05 to 24 hrs of post administration by LC-MS/MS analysis; assay type: ADME, organism-based; details: in vivo, time 0.05-24 hrs
[12] = target: T1, Muscarinic acetylcholine receptor M1 (Homo sapiens, UniProt P11229); assay: Binding affinity to human N-terminal eGFP-tagged CHRM1 expressed in HEK293T cells assessed as dissociation constant incubated for 10 mins by microscale thermophoresis assay; assay type: cell-based
T1 sequence (P11229 whole entry): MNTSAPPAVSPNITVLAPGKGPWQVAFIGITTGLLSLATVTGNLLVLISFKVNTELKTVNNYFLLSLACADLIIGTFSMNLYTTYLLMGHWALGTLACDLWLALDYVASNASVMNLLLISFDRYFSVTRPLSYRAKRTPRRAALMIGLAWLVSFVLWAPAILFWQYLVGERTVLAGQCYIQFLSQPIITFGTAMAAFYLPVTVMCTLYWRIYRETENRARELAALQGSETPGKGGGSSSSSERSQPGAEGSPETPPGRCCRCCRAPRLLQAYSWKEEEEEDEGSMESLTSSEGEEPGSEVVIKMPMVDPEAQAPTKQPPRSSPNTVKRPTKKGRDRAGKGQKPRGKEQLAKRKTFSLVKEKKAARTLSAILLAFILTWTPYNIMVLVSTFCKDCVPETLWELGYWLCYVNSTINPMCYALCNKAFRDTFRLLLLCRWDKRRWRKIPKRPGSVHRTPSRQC

[13] = target: T1, Muscarinic acetylcholine receptor M1; assay: Antagonist activity at human muscarinic M1 receptor expressed in CHO cells incubated for 10 mins in presence of acetylcholine by inositol 1-phosphate accumulation assay; assay type: functional, cell-based
Mus musculus [14] = assay: Antidepressant activity in Reserpine-induced depressive ICR mouse model assessed as reduction in weight loss at 25 to 300 microg/kg,ip administrated on day 4 to 8 for 5 days; assay type: functional, organism-based; details: dose 25-300 µg/kg, time 5.0 day
[15] = Half life in Sprague-Dawley rat at 0.3 mg/kg,iv measured at 0.05 to 24 hrs of post administration by LC-MS/MS analysis; assay type: ADME, organism-based; details: in vivo, time 0.05-24 hrs
[16] = Toxicity in chronic restraint stress-induced depressive C57BL/6J mouse model assessed as decrease in percentage of spontaneous alternation at 2 mg/kg,ip administration by Y-maze test; assay type: organism-based; details: in vivo
Mus musculus [17] = assay: Antidepressant activity in Reserpine-induced depressive C57BL/6J mouse model assessed as decrease in immobility time at 0.1 to 0.3 mg/kg,ip administration measured after 7 days by tail suspension test; assay type: functional, organism-based; details: dose 0.1-0.3 mg/kg, time 7.0 day
[18] = Toxicity in chronic restraint stress-induced depressive C57BL/6J mouse model assessed as spleen pathological change at 25 to 300 microg/kg,ip administrated on day 29 to 33 measured on day 36 by hematoxylin and eosin staining based microscopic analysis; assay type: tissue-based; details: in vivo, 192 h, dose 25-300 µg/kg, time 8 day
[19] = Toxicity in chronic restraint stress-induced depressive C57BL/6J mouse model assessed as kidney pathological change at 25 to 300 microg/kg,ip administrated on day 29 to 33 measured on day 36 by hematoxylin and eosin staining based microscopic analysis; assay type: tissue-based; details: in vivo, 192 h, dose 25-300 µg/kg, time 8 day
[20] = AUC (0 to infinity) in Sprague-Dawley rat at 0.3 mg/kg,iv measured at 0.05 to 24 hrs of post administration by LC-MS/MS analysis; assay type: ADME, organism-based; details: in vivo, time 0.05-24 hrs
[21] = MRT (0 to last) in Sprague-Dawley rat at 0.3 mg/kg,iv measured at 0.05 to 24 hrs of post administration by LC-MS/MS analysis; assay type: ADME, organism-based; details: in vivo, time 0.05-24 hrs
[22] = AUC (0 to last) in Sprague-Dawley rat at 0.3 mg/kg,ip measured at 0.05 to 24 hrs of post administration by LC-MS/MS analysis; assay type: ADME, organism-based; details: in vivo, time 0.05-24 hrs
Mus musculus [23] = assay: Antidepressant activity in Reserpine-induced depressive ICR mouse model assessed as change in total distance traveled at 25 to 300 microg/kg,ip administrated on day 4 to 8 measured on day 9 by open field test; assay type: functional, organism-based; details: dose 25-300 µg/kg, time 6.0 day
Mus musculus [24] = assay: Antidepressant activity in chronic restraint stress-induced depressive C57BL/6J mouse model assessed as increase in hippocampal BDNF protein expression at 0.3 mg/kg,ip administration measured after 8 hrs by Western blotting analysis; assay type: functional, organism-based
[25] = Cmax in Sprague-Dawley rat at 0.3 mg/kg,ip measured at 0.05 to 24 hrs of post administration by LC-MS/MS analysis; assay type: ADME, organism-based; details: in vivo, time 0.05-24 hrs
[26] = Toxicity in chronic restraint stress-induced depressive C57BL/6J mouse model assessed as lung pathological change at 25 to 300 microg/kg,ip administrated on day 29 to 33 measured on day 36 by hematoxylin and eosin staining based microscopic analysis; assay type: tissue-based; details: in vivo, 192 h, dose 25-300 µg/kg, time 8 day
Mus musculus [27] = assay: Antidepressant activity in chronic restraint stress-induced depressive C57BL/6J mouse model assessed as increase in hippocampal BDNF protein expression at 0.3 mg/kg,ip administration measured after 24 hrs by Western blotting analysis; assay type: functional, organism-based

CN1[C@@H]2C[C@@H](OC(=O)[C@@](F)(CO)c3ccccc3)C[C@H]1[C@@H]1O[C@@H]12
Activity [1]: Toxic
Tmax [2]: 3 min
Activity (Mus musculus [3]): Dose-Dependent Effect
Cmax [4]: 230 ng/mL
half-life [5]: 16.6 min
AUC(0-inf) [6]: 25.9 ng·h/mL
Activity (Mus musculus [7]): inactive
MRT inf [8]: 27.3 min
Activity (HT-22): Active
bioavailability [9]: 35.5%
MRT last [10]: 23 min
MRT inf [11]: 16.6 min
Kd [12]: 336 µM
IC50 [13]: 0.0146 µM
Activity (Mus musculus [14]): Active
half-life [15]: 13.9 min
Activity [16]: Non-Toxic
Activity (Mus musculus [17]): Active
Activity [18]: Non-Toxic
Activity [19]: Non-Toxic
AUC(0-inf) [20]: 71.4 ng·h/mL
MRT last [21]: 13.8 min
AUC(0-t) [22]: 24.2 ng·h/mL
Activity (Mus musculus [23]): inactive
Activity (Mus musculus [24]): Active
Cmax [25]: 41.9 ng/mL
Activity [26]: Non-Toxic
Activity (Mus musculus [27]): inactive

From ChEMBL document CHEMBL5543096 (J Med Chem, 2024)
